# Test system: not listed separately
# Assay: physchem
# Conditions: 1-octanol/water; call rule not given here
row,SMILES,logP
1,CP(=S)(c1ccccc1)c1ccc(O)cc1 (stereo unspecified),2.69
2,CP(=O)(c1ccccc1)c1ccc(O)cc1 (stereo unspecified),1.88
3,CP(=[Se])(c1ccccc1)c1ccc(O)cc1 (stereo unspecified),3.27
4,Oc1ccc(P(=S)(c2ccccc2)c2ccccc2)cc1,4.08
5,CC(C)(c1ccccc1)c1ccc(O)cc1,4.2
6,C[Si](C)(c1ccccc1)c1ccc(O)cc1,4.8
7,Oc1ccc(P(c2ccccc2)c2ccccc2)cc1,5.06
8,CP(c1ccccc1)c1ccc(O)cc1 (stereo unspecified),3.67
9,O=P(c1ccccc1)(c1ccccc1)c1ccc(O)cc1,3.22
10,B.CP(c1ccccc1)c1ccc(O)cc1 (stereo unspecified) [listing 1 of 2 here],3.38
11,B.Oc1ccc(P(c2ccccc2)c2ccccc2)cc1,4.96

# Target: T1, Estrogen receptor beta (Homo sapiens, UniProt Q92731)
# Assay: not given
# Conditions: hek293
# T1 sequence (Q92731 whole entry): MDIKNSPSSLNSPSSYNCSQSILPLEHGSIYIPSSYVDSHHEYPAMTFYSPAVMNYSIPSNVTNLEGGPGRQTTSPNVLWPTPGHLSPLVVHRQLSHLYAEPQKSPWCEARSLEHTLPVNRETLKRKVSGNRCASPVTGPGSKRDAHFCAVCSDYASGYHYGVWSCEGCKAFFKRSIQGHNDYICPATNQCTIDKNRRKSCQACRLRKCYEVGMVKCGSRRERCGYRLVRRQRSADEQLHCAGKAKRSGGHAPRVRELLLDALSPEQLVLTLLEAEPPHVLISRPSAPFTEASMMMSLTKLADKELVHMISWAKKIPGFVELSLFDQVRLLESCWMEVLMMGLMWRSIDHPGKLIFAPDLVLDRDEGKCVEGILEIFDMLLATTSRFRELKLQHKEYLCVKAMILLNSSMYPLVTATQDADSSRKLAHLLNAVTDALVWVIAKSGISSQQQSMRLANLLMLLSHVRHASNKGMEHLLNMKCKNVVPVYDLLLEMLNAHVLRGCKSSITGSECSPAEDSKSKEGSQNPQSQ
row,SMILES,IC50
1,CP(=S)(c1ccccc1)c1ccc(O)cc1 (stereo unspecified),Not Active
2,CP(=O)(c1ccccc1)c1ccc(O)cc1 (stereo unspecified),Not Active
3,Oc1ccc(P(c2ccccc2)c2ccccc2)cc1,Not Active
4,CP(c1ccccc1)c1ccc(O)cc1 (stereo unspecified),Not Active
5,O=P(c1ccccc1)(c1ccccc1)c1ccc(O)cc1,Not Active

# Target: T2, Estrogen receptor (Homo sapiens) (UniProt P03372)
# T2 sequence (whole entry): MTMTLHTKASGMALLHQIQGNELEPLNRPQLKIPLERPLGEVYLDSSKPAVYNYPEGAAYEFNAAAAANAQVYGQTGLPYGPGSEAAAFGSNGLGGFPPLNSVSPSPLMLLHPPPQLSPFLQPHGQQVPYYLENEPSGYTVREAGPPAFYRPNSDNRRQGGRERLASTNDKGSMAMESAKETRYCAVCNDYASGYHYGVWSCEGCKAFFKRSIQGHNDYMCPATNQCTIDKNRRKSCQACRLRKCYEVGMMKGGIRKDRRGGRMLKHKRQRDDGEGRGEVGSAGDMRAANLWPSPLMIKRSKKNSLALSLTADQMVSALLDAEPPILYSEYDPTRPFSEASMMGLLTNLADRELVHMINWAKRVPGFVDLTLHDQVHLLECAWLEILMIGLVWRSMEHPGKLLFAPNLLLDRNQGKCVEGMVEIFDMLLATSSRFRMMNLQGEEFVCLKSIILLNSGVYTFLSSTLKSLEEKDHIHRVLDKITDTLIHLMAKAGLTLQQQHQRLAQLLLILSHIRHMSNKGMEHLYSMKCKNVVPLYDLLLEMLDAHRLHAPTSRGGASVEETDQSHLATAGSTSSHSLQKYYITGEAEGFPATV
# Assay: Agonist activity at human Gal4-fused ERalpha expressed in HEK293 cells assessed as transcriptional activation at 30 uM after 24 hrs by luciferase/beta-galactosidase reporter gene assay relative to estradiol
# Format: cell-based
# Conditions: not given
row,SMILES,Activity [%]
1,CP(=S)(c1ccccc1)c1ccc(O)cc1 (stereo unspecified),24

# Target: T1, Estrogen receptor beta
# Assay: Agonist activity at human Gal4-fused ERbeta expressed in HEK293 cells assessed as transcriptional activation at 30 uM after 24 hrs by luciferase/beta-galactosidase reporter gene assay relative to estradiol
# Format: cell-based
# Conditions: not given
row,SMILES,Activity [%]
1,CP(=S)(c1ccccc1)c1ccc(O)cc1 (stereo unspecified),24
2,CP(=O)(c1ccccc1)c1ccc(O)cc1 (stereo unspecified),36
3,CP(=[Se])(c1ccccc1)c1ccc(O)cc1 (stereo unspecified),24
4,CC(C)(c1ccccc1)c1ccc(O)cc1,38
5,B.CP(c1ccccc1)c1ccc(O)cc1 (stereo unspecified) [listing 2 of 2 here],16
6,C[Si](C)(c1ccccc1)c1ccc(O)cc1,20

# Target: T3, Estrogen receptor (Homo sapiens, UniProt P03372)
# T3 sequence (P03372 whole entry): T2 sequence (whole entry)
# Assay: not given
# Conditions: hek293
row,SMILES,IC50
1,CP(=S)(c1ccccc1)c1ccc(O)cc1 (stereo unspecified),Not Active
2,CP(=O)(c1ccccc1)c1ccc(O)cc1 (stereo unspecified),Not Active
3,CP(=[Se])(c1ccccc1)c1ccc(O)cc1 (stereo unspecified),Not Active
4,Oc1ccc(P(c2ccccc2)c2ccccc2)cc1,Not Active
5,CP(c1ccccc1)c1ccc(O)cc1 (stereo unspecified),Not Active
6,O=P(c1ccccc1)(c1ccccc1)c1ccc(O)cc1,Not Active

# Target: T3, Estrogen receptor
# Assay: not given
# Conditions: not given
row,SMILES,IC50 [µM]
1,Oc1ccc(P(=S)(c2ccccc2)c2ccccc2)cc1,20
2,CC(C)(c1ccccc1)c1ccc(O)cc1,24
3,C[Si](C)(c1ccccc1)c1ccc(O)cc1,13
4,B.CP(c1ccccc1)c1ccc(O)cc1 (stereo unspecified) [listing 1 of 2 here],9.8
5,B.Oc1ccc(P(c2ccccc2)c2ccccc2)cc1,12

# Target: T1, Estrogen receptor beta
# Assay: Antagonist activity at human Gal4-fused ERbeta expressed in HEK293 cells assessed as inhibition of E2-induced transcriptional activation at 30 uM after 24 hrs by luciferase/beta-galactosidase reporter gene assay relative to control
# Format: cell-based
# Conditions: not given
row,SMILES,inhibition [%]
1,CP(=[Se])(c1ccccc1)c1ccc(O)cc1 (stereo unspecified),30

# Target: T3, Estrogen receptor
# Assay: not given
# Conditions: not given
# Remark: another data set of the same source
row,SMILES,EC50 [µM]
1,CP(=O)(c1ccccc1)c1ccc(O)cc1 (stereo unspecified),19
2,CC(C)(c1ccccc1)c1ccc(O)cc1,4.4
3,C[Si](C)(c1ccccc1)c1ccc(O)cc1,> 30

# Target: T1, Estrogen receptor beta
# Assay: not given
# Conditions: not given
row,SMILES,IC50 [µM]
1,Oc1ccc(P(=S)(c2ccccc2)c2ccccc2)cc1,13
2,CC(C)(c1ccccc1)c1ccc(O)cc1,13
3,C[Si](C)(c1ccccc1)c1ccc(O)cc1,5
4,B.CP(c1ccccc1)c1ccc(O)cc1 (stereo unspecified) [listing 1 of 2 here],2.5
5,B.Oc1ccc(P(c2ccccc2)c2ccccc2)cc1,2

# Test system: not listed separately
# Assay: physchem
# Conditions: not given
row,SMILES,pKa
1,CP(=S)(c1ccccc1)c1ccc(O)cc1 (stereo unspecified),8.65
2,CP(=O)(c1ccccc1)c1ccc(O)cc1 (stereo unspecified),8.63
3,CP(=[Se])(c1ccccc1)c1ccc(O)cc1 (stereo unspecified),8.64
4,Oc1ccc(P(=S)(c2ccccc2)c2ccccc2)cc1,8.6
5,CC(C)(c1ccccc1)c1ccc(O)cc1,10.6
6,C[Si](C)(c1ccccc1)c1ccc(O)cc1,10.2
7,Oc1ccc(P(c2ccccc2)c2ccccc2)cc1,9.48
8,CP(c1ccccc1)c1ccc(O)cc1 (stereo unspecified),9.49
9,O=P(c1ccccc1)(c1ccccc1)c1ccc(O)cc1,8.51
10,B.CP(c1ccccc1)c1ccc(O)cc1 (stereo unspecified) [listing 1 of 2 here],8.83
11,B.Oc1ccc(P(c2ccccc2)c2ccccc2)cc1,8.81

# Target: T3, Estrogen receptor
# Assay: not given
# Conditions: hek293
# Remark: another data set of the same source
row,SMILES,EC50
1,CP(=[Se])(c1ccccc1)c1ccc(O)cc1 (stereo unspecified),Not Active
2,Oc1ccc(P(=S)(c2ccccc2)c2ccccc2)cc1,Not Active
3,Oc1ccc(P(c2ccccc2)c2ccccc2)cc1,Not Active
4,CP(c1ccccc1)c1ccc(O)cc1 (stereo unspecified),Not Active
5,O=P(c1ccccc1)(c1ccccc1)c1ccc(O)cc1,Not Active
6,B.CP(c1ccccc1)c1ccc(O)cc1 (stereo unspecified) [listing 1 of 2 here],Not Active
7,B.Oc1ccc(P(c2ccccc2)c2ccccc2)cc1,Not Active

# From ChEMBL document CHEMBL4616613, “Phosphine boranes as less hydrophobic building blocks than alkanes and silanes: Structure-property relationship and estrogen-receptor-modulating potency of 4-phosphinophenol derivatives” (Bioorg Med Chem, 2020)
